Data on 2 compounds can be found in ChEMBL document CHEMBL5390217, “Structure Confirmation of Dechlorotrichotoxin A through Stereoselective Total Synthesis” (2023).

The subject of test [1] is U-937. Description: Antiproliferative activity against human U-937 cells assessed as inhibition of cell growth at 30 uM incubated for 48 hrs in presence of 10% FBS by CCK-8 assay relative to control. The format is functional. On the set-up: scale not given: the % may be the effect or the level left. On the technique in general: Formazan colour is commonly taken as a measure of viable cells.

Test [2] relates to MCF7. Description: Antiproliferative activity against human MCF7 cells assessed as inhibition of cell growth at 30 uM incubated for 48 hrs in presence of 10% FBS by CCK-8 assay. It counts as functional, cell-based.
Test [3] deals with MCF7. Description: Antiproliferative activity against human MCF7 cells assessed as inhibition of cell growth at 30 uM incubated for 48 hrs in presence of 10% FBS by CCK-8 assay relative to control. The format is functional. On the set-up: scale not given: the % may be the effect or the level left.

Each structure is given as a SMILES string. Calls of active or inactive are those of the source. No cut-off for these calls is given here.

For the compound `C=CC[C@@H](O)/C(C)=C/[C@@H](C)CCC(=CCl)Cc1ccccc1` (mixture of isomers), the Activity in test [1] is 20%. Moreover, the result in test [2] was inactive.

With `C=CC[C@@H](O)/C(C)=C/[C@@H](C)CCC(=C)Cc1ccccc1`, the Activity in test [1] is 44%; in test [3], 21%.
